In ChEMBL document CHEMBL3046775, “Synthesis and evaluation of 7-substituted-3,4-dihydrobenzo[f][1,4]oxazepin-5(2H)-ones as anticonvulsant and hypnotic agents” (Med Chem Res, 2011):
The source made the active and inactive calls. The rule behind the calls is not given here.

Legend:
Mus musculus [1] = experiment: Neurotoxicity against Mus musculus (mouse) at 100 mg/kg, ip measured at 4 hr by rotarod test; assay type: toxicity, organism-based; set-up: dose 100 mg/kg, route intraperitoneal; details: in vivo
Mus musculus [2] = experiment: Hypnotic activity in Mus musculus Kunming (mouse) assessed as increase in phenobarbital-induced sleep duration at 10 mg/kg, ip administered 30 min prior to phenobarbital-induction; assay type: functional, organism-based; set-up: dose 10 mg/kg
[3] = Protective index, ratio of TD50 for neurotoxicity to ED50 for anticonvulsant activity in mouse; assay type: toxicity, organism-based; details: in vivo, read-out: Ratio TD50/ED50
[4] = Neurotoxicity against ip dosed Mus musculus (mouse) by rotarod test; assay type: toxicity, organism-based; details: in vivo
Mus musculus [5] = experiment: Anticonvulsant activity in ip dosed Mus musculus (mouse) assessed as protection against maximal electroshock-induced seizures administered 30 min prior to electroshock-challenge measured at 4 hr; assay type: functional
Mus musculus [6] = experiment: Hypnotic activity in ip dosed Mus musculus Kunming (mouse) assessed as increase in phenobarbital-induced sleep duration administered 30 min prior to phenobarbital-induction; assay type: functional, organism-based
Mus musculus [7] = experiment: Hypnotic activity in Mus musculus Kunming (mouse) assessed as increase in phenobarbital-induced sleep duration at 60 mg/kg, ip administered 30 min prior to phenobarbital-induction (reference value: 20.9 +/- 2.31 min); assay type: functional; details: route intraperitoneal
Mus musculus [8] = experiment: Hypnotic activity in Mus musculus Kunming (mouse) assessed as increase in phenobarbital-induced sleep duration at 30 mg/kg, ip administered 30 min prior to phenobarbital-induction; assay type: functional, organism-based; set-up: dose 30 mg/kg
Mus musculus [9] = experiment: Neurotoxicity against Mus musculus (mouse) at 100 mg/kg, ip measured at 0.5 hr by rotarod test; assay type: toxicity, organism-based; set-up: dose 100 mg/kg, route intraperitoneal; details: in vivo
Mus musculus [10] = experiment: Anticonvulsant activity in Mus musculus (mouse) assessed as protection against maximal electroshock-induced seizures at 30 mg/kg, ip administered 30 min prior to electroshock-challenge measured at 4 hr; assay type: functional, organism-based; set-up: dose 30 mg/kg
Mus musculus [11] = experiment: Anticonvulsant activity in Mus musculus (mouse) assessed as protection against maximal electroshock-induced seizures at 30 mg/kg, ip administered 30 min prior to electroshock-challenge measured at 0.5 hr; assay type: functional, organism-based; set-up: dose 30 mg/kg
Mus musculus [12] = experiment: Anticonvulsant activity in Mus musculus (mouse) assessed as protection against maximal electroshock-induced seizures at 100 mg/kg, ip administered 30 min prior to electroshock-challenge measured at 4 hr; assay type: functional, organism-based; set-up: dose 100 mg/kg
Mus musculus [13] = experiment: Anticonvulsant activity in Mus musculus (mouse) assessed as protection against maximal electroshock-induced seizures at 100 mg/kg, ip administered 30 min prior to electroshock-challenge measured at 0.5 hr; assay type: functional, organism-based; set-up: dose 100 mg/kg
Mus musculus [14] = experiment: Neurotoxicity against Mus musculus (mouse) at 300 mg/kg, ip measured at 4 hr by rotarod test; assay type: toxicity, organism-based; set-up: dose 300 mg/kg, route intraperitoneal; details: in vivo
Mus musculus [15] = experiment: Neurotoxicity against Mus musculus (mouse) at 300 mg/kg, ip measured at 0.5 hr by rotarod test; assay type: toxicity, organism-based; set-up: dose 300 mg/kg, route intraperitoneal; details: in vivo
Mus musculus [16] = experiment: Anticonvulsant activity in Mus musculus (mouse) assessed as protection against maximal electroshock-induced seizures at 300 mg/kg, ip administered 30 min prior to electroshock-challenge measured at 4 hr; assay type: functional, organism-based; set-up: dose 300 mg/kg
Mus musculus [17] = experiment: Anticonvulsant activity in Mus musculus (mouse) assessed as protection against maximal electroshock-induced seizures at 300 mg/kg, ip administered 30 min prior to electroshock-challenge measured at 0.5 hr; assay type: functional, organism-based; set-up: dose 300 mg/kg
Mus musculus [18] = experiment: Hypnotic activity in Mus musculus Kunming (mouse) assessed as increase in phenobarbital-induced sleep duration at 60 mg/kg, ip administered 30 min prior to phenobarbital-induction; assay type: functional, organism-based; set-up: dose 60 mg/kg

SMILES | Activity (Mus musculus [1]) | selectivity ratio [3] | TD50 [4] [mg/kg] | ED50 (Mus musculus [5]) [mg/kg] | Activity (Mus musculus [9]) | Activity (Mus musculus [12]) | Activity (Mus musculus [13]) | other results
CCCCCCCOc1ccc2c(c1)C(=O)NCCO2 | Non-toxic | 2.5 | 47.3 | 19 | Toxic | – | – | Activity (Mus musculus [2]): inactive; Activity (Mus musculus [6]): Dose-dependent effect; Time (Mus musculus [7]): 45.7 min; Activity (Mus musculus [8]): Active; Activity (Mus musculus [10]): inactive; Activity (Mus musculus [11]): Active
O=C1NCCOc2ccc(OCc3ccccc3)cc21 | Non-toxic | 1 | 76.2 | 73.1 | Toxic | inactive | Active | –
CCCCOc1ccc2c(c1)C(=O)NCCO2 | Non-toxic | – | – | – | Toxic | Active | Active | –
CCCCCOc1ccc2c(c1)C(=O)NCCO2 | Non-toxic | 1.9 | 106 | 56.8 | Toxic | inactive | Active | –
O=C1NCCOc2ccc(OCc3ccccc3F)cc21 | Non-toxic | 1.2 | 52.8 | 45.6 | Toxic | inactive | Active | –
COc1ccc(COc2ccc3c(c2)C(=O)NCCO3)cc1 | Non-toxic | – | – | – | Non-toxic | inactive | inactive | –
O=C1NCCOc2ccc(OCc3cccc(Cl)c3)cc21 | Non-toxic | – | – | – | Toxic | inactive | Active | –
CCCCCCCCOc1ccc2c(c1)C(=O)NCCO2 | Non-toxic | – | – | – | Toxic | inactive | Active | –
O=C1NCCOc2ccc(OCc3c(Cl)cccc3Cl)cc21 | Non-toxic | – | – | – | Toxic | inactive | inactive | –
O=C1NCCOc2ccc(OCc3ccc(Br)cc3)cc21 | – | – | – | – | – | – | – | Activity (Mus musculus [14]): Non-toxic; Activity (Mus musculus [15]): Toxic; Activity (Mus musculus [16]): inactive; Activity (Mus musculus [17]): Active
COc1ccc(COc2ccc3c(c2)C(=O)NCCO3)cc1OC | Non-toxic | – | – | – | Toxic | inactive | inactive | –
O=C1NCCOc2ccc(OCc3cccc(F)c3)cc21 | Non-toxic | 1 | 73.1 | 73.1 | Toxic | inactive | Active | –
O=C1NCCOc2ccc(OCc3ccccc3Cl)cc21 | – | – | – | – | – | – | – | Activity (Mus musculus [14]): Non-toxic; Activity (Mus musculus [15]): Toxic; Activity (Mus musculus [16]): inactive; Activity (Mus musculus [17]): Active
NC(=O)N1c2ccccc2C=Cc2ccccc21 [CARBAMAZEPINE] | – | 6.4 | – | – | – | – | – | –
CCCOc1ccc2c(c1)C(=O)NCCO2 | Non-toxic | 2.2 | 170 | 78.3 | Toxic | inactive | Active | –
O=C1NCCOc2ccc(OCc3ccc(Cl)cc3)cc21 | Non-toxic | – | – | – | Toxic | inactive | inactive | –
CCOc1ccc2c(c1)C(=O)NCCO2 | Non-toxic | – | – | – | Non-toxic | inactive | inactive | –
CCCCCCOc1ccc2c(c1)C(=O)NCCO2 | Non-toxic | 2.2 | 106 | 47.3 | Toxic | Active | Active | –
O=C1NCCOc2ccc(OCc3ccccc3Br)cc21 | Non-toxic | – | – | – | Toxic | inactive | inactive | –
O=C1NCCOc2ccc(OCc3ccc(F)cc3)cc21 | – | – | – | – | – | – | – | Activity (Mus musculus [14]): Non-toxic; Activity (Mus musculus [15]): Toxic; Activity (Mus musculus [16]): Active; Activity (Mus musculus [17]): Active
Cc1ccc(COc2ccc3c(c2)C(=O)NCCO3)cc1 | Non-toxic | – | – | – | Toxic | inactive | inactive | –
CCC1(c2ccccc2)C(=O)NC(=O)NC1=O [PHENOBARBITAL] | – | – | – | 21.8 | – | – | – | –
CN1CCN(C(=O)OC2c3nccnc3C(=O)N2c2ccc(Cl)cn2)CC1 (stereo not drawn) | – | – | – | – | – | – | – | Activity (Mus musculus [18]): Active
O=C1CCc2cc(OCc3ccccc3)ccc2N1 | – | – | > 300 | – | – | – | – | –
CCCCCCCCCCCCOc1ccc2c(c1)C(=O)NCCO2 | – | – | – | – | – | – | – | Activity (Mus musculus [14]): Non-toxic; Activity (Mus musculus [15]): Toxic; Activity (Mus musculus [16]): inactive; Activity (Mus musculus [17]): Active
